Test results taken from publication PMC6413339 (EBioMedicine, 2019).
Where two headings read alike, the source gives them in different places.

Key:
[1] = biological target: T1, p38 (Homo sapiens, UniProt Q16539); experiment: Cell-free kinase assay, dose-response; format: biochemical; conditions: ATP 100 μM
T1 construct: purchased Invitrogen PV3304
Method: (§1) Cell-free kinase activity assays were performed at Reaction Biology Corporation. Briefly, kinases were incubated with substrates, 100 μM ATP and a 3-fold serial dilution of compounds starting at 1 μM. DMSO was used as control. […] Experiments were performed in duplicates. The concentrations of kinases and substrates used in the assays are indicated on Table S1. Kinase activity was quantified using the ADP-Glo™ Kinase Assay System (Promega, Madison, WI) following the manufacturer's recommendations.

[2] = biological target: T2, RAF-1 (Homo sapiens, UniProt P04049, Y340D/Y341D); experiment: Cell-free kinase assay, dose-response; format: biochemical; conditions: ATP 100 μM; read-out: IC50 RAF-1 (c-Raf)
T2 construct: purchased Invitrogen PV3805
Method: as §1

[3] = biological target: T3, RSK1 (Homo sapiens, UniProt Q15418); experiment: Cell-free kinase assay, dose-response; format: biochemical; conditions: ATP 100 μM
T3 construct: purchased Invitrogen PR6812A
Method: as §1

[4] = biological target: T4, MEK1 (Homo sapiens, UniProt Q02750); experiment: Cell-free kinase assay, dose-response; format: biochemical; conditions: up to 1 μM; ATP 100 μM
T4 construct: purchased Invitrogen PV3303
Method: as §1

[5] = biological target: T5, ARAF (Homo sapiens, UniProt P10398); experiment: Cell-free kinase assay, dose-response; format: biochemical; conditions: ATP 100 μM; read-out: IC50 ARAF (A-Raf)
T5 construct: purchased BPS 40010
Method: as §1

[6] = biological target: T6, BRAF (Homo sapiens, UniProt P15056); experiment: Cell-free kinase assay, dose-response; format: biochemical; conditions: ATP 100 μM; read-out: IC50 BRAF (B-Raf)
T6 construct: purchased BPS 40005
Method: as §1

[7] = biological target: T7, p70S6K (Homo sapiens, UniProt P23443); experiment: Cell-free kinase assay, dose-response; format: biochemical; conditions: ATP 100 μM
T7 construct: purchased Invitrogen PV3815
Method: as §1

[8] = test system: c-Myc; experiment: Western blot, MV4–11 cells; format: cell-based, human; conditions: 2 nM or 10 nM, 6 h and 48 h
Method: (§2) MV4–11 cultures were treated with 2 nM and 10 nM of compounds for 6 h and 48 h. Total protein extraction, gel separation, transfer and imaging of blots were performed as previously described. The following primary antibodies from Cell Signaling Technologies (MA, USA) were used: Phospho-p70S6K (cat. no. 9205, RRID: AB_330944), p70S6K (cat. no. 9202, RRID: AB_331676), Phospho-p38 (cat. no. 9211, RRID: AB_331641), p38 (cat. no. 9212, RRID: AB_330713), c-Myc (cat. no. 9402, RRID: AB_2151827), Phospho-FLT3 (cat. no. 3461, RRID: AB_331060), FLT3 (cat. no. 3462, RRID: AB_10693420), Phospho-STAT5 (cat. no. 9359, RRID: AB_823649), STAT5 (cat. no. 9363, RRID: AB_2196923), Phospho-ERK (cat. no. 9101, RRID: AB_331646), ERK (cat. no. 4695, RRID: AB_390779), Phospho-AKT (cat. no. 9271), AKT (cat. no. 9272, RRID: AB_329825), Phospho-Src (cat. no. 2101, RRID: AB_331697), Src (cat. no. 2110, RRID: AB_2106058), Phospho-STAT3 (cat. no. 9145, RRID: AB_2491009), STAT3 (cat. no. 12640, RRID: AB_2629499). Mouse anti-β-Actin antibody was purchased from Sigma (MO, USA). A horseradish peroxidase-conjugated anti-rabbit or anti-mouse antibody (Cell Signaling Technologies) was used as secondary antibody. Scanned images were analyzed using image J software.

[9] = test system: phospho-Src; experiment: Western blot, MV4–11 cells; format: cell-based, human; conditions: 2 nM or 10 nM, 6 h and 48 h
Method: as §2

[10] = test system: phospho-p38; experiment: Western blot, MV4–11 cells; format: cell-based, human; conditions: 2 nM or 10 nM, 6 h and 48 h
Method: as §2

[11] = test system: MV4–11 cells; experiment: Antiproliferative activity (CellTitre-Blue, 72 h); format: cell-based, human; conditions: Homo sapiens, MV4-11, 72 h, 72 h incubation, triplicates; read-out: IC50 (mean ±SD, nM) MV4–11
Method: (§3) Cells were seeded into 96-well tissue culture-treated plates at 2.0 × 10^4 cells/mL for up to 24 h. DMSO stock solutions of compounds were serially diluted first in DMSO and subsequently into RPMI before being added to the cell cultures in triplicates, with 10 μM being the highest tested concentration. The plates were incubated for 72 h as above. The CellTitre-Blue assay (Promega, Madison WI) was then added to the cultures and incubated a further 4 h before the fluorescence measured following the manufacturers recommendations. The fluorescence data from compounds were normalized to that DMSO and the resulting data fitted to a non-linear regression equation to obtain IC50 using GraphPad Prism 5.0 Software (La Jolla, CA, USA).

[12] = test system: MOLM-14 (ITD, D835Y) cells; experiment: Antiproliferative activity (CellTitre-Blue, 72 h); format: cell-based, human; conditions: 72 h incubation, triplicates, read-out: IC50 (mean ±SD, nM) MOLM-14 (ITD, D835Y)
Method: as §3

[13] = test system: MOLM-14 cells; experiment: Antiproliferative activity (CellTitre-Blue, 72 h); format: cell-based, human; conditions: Homo sapiens, MOLM-14; 72 h incubation, triplicates; read-out: IC50 (mean ±SD, nM) MOLM-14
Method: as §3

[14] = test system: MOLM-14 (ITD, F691 L) cells; experiment: Antiproliferative activity (CellTitre-Blue, 72 h); format: cell-based, human; conditions: 72 h incubation, triplicates; listed as 7 (HSN431); read-out: IC50 (mean ±SD, nM) MOLM-14 (ITD, F691 L)
Method: as §3

T5 sequence (P10398 whole entry): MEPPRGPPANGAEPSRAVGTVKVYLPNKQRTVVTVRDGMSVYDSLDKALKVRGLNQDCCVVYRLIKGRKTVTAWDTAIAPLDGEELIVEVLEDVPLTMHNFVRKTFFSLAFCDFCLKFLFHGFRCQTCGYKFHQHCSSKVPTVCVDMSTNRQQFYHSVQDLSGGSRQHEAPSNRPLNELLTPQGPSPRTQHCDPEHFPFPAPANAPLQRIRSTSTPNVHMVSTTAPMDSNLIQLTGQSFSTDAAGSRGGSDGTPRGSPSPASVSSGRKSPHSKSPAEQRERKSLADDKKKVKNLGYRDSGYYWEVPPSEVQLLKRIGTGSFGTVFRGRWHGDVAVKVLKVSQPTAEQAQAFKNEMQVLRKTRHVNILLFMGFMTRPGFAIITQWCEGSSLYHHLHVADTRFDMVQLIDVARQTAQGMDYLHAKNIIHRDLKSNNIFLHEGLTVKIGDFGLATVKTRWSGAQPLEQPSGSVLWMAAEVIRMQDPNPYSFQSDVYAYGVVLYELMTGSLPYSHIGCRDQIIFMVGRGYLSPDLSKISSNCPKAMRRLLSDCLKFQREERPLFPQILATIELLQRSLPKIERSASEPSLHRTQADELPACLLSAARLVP
T1 sequence (Q16539 whole entry): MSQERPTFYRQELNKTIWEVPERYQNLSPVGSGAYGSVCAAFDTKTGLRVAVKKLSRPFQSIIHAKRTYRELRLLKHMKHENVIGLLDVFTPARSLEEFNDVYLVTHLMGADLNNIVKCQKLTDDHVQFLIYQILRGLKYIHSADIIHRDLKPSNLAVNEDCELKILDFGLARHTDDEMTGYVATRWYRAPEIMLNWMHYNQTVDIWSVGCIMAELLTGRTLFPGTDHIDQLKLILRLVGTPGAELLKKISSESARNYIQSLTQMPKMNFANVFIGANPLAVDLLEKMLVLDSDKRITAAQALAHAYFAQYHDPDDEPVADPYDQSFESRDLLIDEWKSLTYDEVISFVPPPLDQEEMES
T7 sequence (P23443 whole entry): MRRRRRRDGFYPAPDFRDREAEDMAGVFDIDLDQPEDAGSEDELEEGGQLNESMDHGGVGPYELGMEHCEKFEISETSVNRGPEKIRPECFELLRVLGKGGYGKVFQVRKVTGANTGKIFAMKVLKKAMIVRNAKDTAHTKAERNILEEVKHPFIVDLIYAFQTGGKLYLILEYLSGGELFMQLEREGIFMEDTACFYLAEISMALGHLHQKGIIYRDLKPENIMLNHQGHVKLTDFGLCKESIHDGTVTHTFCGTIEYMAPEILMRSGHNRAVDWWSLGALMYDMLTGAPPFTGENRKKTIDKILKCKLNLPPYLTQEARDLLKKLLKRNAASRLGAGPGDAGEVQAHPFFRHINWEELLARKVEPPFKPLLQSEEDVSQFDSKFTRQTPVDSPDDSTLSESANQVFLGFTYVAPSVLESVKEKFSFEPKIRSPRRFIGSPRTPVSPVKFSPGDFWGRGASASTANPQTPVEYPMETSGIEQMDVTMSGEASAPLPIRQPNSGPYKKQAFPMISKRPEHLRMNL
T6 sequence (P15056 whole entry): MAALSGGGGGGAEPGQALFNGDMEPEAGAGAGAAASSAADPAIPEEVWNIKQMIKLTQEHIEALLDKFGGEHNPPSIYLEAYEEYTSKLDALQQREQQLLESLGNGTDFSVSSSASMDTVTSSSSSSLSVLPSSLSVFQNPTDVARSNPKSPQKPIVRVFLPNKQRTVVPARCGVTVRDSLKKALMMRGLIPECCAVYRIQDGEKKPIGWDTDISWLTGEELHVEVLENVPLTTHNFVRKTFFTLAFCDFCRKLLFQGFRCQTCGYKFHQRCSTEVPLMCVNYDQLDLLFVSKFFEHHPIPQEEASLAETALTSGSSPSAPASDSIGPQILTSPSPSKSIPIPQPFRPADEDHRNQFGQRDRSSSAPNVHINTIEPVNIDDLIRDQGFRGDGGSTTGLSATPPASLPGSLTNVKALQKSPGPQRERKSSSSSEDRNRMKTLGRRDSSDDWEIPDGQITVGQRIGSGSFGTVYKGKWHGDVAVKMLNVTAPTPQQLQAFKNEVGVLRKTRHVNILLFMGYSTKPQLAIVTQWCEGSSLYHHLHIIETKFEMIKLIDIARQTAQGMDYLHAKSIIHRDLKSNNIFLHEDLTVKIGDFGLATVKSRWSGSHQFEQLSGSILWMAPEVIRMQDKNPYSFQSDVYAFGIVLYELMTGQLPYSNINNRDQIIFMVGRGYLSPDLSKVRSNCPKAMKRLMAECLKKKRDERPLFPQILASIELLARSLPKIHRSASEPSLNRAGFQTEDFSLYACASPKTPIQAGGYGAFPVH
T4 sequence (Q02750 whole entry): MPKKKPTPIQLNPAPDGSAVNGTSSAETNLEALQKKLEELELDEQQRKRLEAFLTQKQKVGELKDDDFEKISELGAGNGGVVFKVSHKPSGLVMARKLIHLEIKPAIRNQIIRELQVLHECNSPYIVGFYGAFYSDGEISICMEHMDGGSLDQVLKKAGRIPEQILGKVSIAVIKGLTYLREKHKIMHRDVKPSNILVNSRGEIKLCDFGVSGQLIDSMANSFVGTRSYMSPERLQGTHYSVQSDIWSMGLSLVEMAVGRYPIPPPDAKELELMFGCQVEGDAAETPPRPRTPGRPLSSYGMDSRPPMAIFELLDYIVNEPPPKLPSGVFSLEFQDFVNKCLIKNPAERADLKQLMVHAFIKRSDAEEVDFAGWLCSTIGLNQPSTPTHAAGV
T2 sequence (P04049 306-648 Y340D/Y341D limits assumed): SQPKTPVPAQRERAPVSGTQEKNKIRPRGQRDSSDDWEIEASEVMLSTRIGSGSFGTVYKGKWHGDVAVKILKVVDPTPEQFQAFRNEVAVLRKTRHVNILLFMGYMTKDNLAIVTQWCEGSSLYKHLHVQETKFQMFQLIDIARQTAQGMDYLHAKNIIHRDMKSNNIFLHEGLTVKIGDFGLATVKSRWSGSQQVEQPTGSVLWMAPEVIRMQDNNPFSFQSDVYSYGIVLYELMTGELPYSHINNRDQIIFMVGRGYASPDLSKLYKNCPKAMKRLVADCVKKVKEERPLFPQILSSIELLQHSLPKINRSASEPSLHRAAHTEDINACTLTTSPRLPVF
T3 sequence (Q15418 whole entry): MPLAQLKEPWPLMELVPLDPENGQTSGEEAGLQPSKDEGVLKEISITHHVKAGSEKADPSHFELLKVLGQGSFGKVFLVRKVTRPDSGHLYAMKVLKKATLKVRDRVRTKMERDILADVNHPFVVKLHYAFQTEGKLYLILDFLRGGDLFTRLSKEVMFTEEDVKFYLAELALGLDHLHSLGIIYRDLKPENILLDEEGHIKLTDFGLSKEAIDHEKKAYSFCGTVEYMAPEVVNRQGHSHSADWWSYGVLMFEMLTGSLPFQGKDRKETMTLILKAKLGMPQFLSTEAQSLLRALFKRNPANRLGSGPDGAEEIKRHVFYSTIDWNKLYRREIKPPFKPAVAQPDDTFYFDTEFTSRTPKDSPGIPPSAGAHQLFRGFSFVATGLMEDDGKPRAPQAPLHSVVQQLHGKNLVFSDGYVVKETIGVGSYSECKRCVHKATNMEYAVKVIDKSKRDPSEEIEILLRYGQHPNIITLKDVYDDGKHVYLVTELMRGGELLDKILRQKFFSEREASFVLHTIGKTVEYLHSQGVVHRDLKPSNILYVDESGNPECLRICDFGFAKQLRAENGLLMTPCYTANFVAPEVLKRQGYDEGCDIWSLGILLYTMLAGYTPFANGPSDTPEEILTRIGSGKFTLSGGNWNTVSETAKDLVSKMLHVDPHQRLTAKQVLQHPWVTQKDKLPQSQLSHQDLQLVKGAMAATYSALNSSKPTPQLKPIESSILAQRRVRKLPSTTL

In the case of `Cc1ncc(C(=O)Nc2ccc(CN3CCN(C)CC3)c(C(F)(F)F)c2)cc1C#Cc1c(N)ncc2ccc(F)cc12` [Compound 7], the IC50 [1] is reported as 46.2 nM, the IC50 [2] is reported as 12.8 nM and the IC50 [3] is reported as 1480 nM. For the same molecule, the “inhibition of MEK1 kinase activity” value [4] was “but not the downstream effectors MEK1, ERK1 and RSK1”, the IC50 [5] was 27.6 nM and the IC50 [6] was 26.3 nM. For the same molecule, the IC50 [7] was 44.7 nM, the c-Myc level [8] was “modest inhibition” and the “phosphorylation of Src” value [9] was “inhibition”. The “phosphorylation of p38” value [10] was “inhibition”, the IC50 [11] was 0.5 ± 0.01 nM and the IC50 ([12]; listed as 7 (HSN431)) was 16.6 ± 5.8 nM. For the same molecule, the IC50 ([12]; Homo sapiens, MOLM-14, 72 h) was no more than 15 nM, the IC50 [13] was 0.5 ± 0.01 nM and the IC50 [14] was 3.3 ± 0.3 nM.
